For test [1], the system named is CD4 and CD8 T cells. Nature of the test: In vitro challenge of T cells from mice injected with sv6D-MOG. The test is classed as cell-based, C57BL/6 mice. The note with it: mice injected weekly x2 with 0.1 nmol/g; 72 h incubation. On the procedure: FIGS. 11A-11B. Activation of T cells by sv6D-antigen conjugate. IFN-γ (FIG. 11A) and IL-2 (FIG. 11B) production upon in vitro challenge of T cells after weekly injections of sv6D or sv6D-MOG (MOG=myelin oligodendrocyte glycoprotein35-55) into C57BL/6 mice. One week after the second injection, spleen and right inguinal lymph node tissue were combined and homogenized to allow isolation of CD4 and CD8 T cells, which were mixed with non-T cell antigen presenting cells, and incubated 72 h with PBS, sv6D or sv6D-MOG. PMA (phorbol 12-myristate 13-acetate) and I (ionomycin) were added as positive controls. Activation of CD8^+ T cells indicated cross-presentation of the antigen to the cytosol of dendritic cells, mediated by sv6D.
Whereas sv6D is not antigenic in the mouse (FIG. 10), it is important to determine whether the peptide gains access to the cytosol of DCs. To test whether sv6D could initiate a TH1 response and activate CD8^+ T cells, a fragment of the myelin oligodendrocyte glycoprotein (MOG35-55) was attached to the C-terminus of sv6D and injected into mice. One week after a second weekly injection of 0.1 nmol/g peptide, CD4^+ and CD8^+ T cells were challenged in vitro with the conjugate. […] A high level of IL-2 was also released by CD4^+ T cells (FIG. 11B). These observations are typical of a strong response to vaccination and stimulation of clonal T cell proliferation. […]

Test [2] relates to 4T1 breast cancer-bearing mice. The settings on record: 0.1 nmol/g svL4 s.c., 4 h.
Experimental: When tumors reached a volume of at least 500 mm^3, animals were randomized into groups of 3 and dosed with either 0.1 or 1.0 nmol/g of svL4. At 4 h post dose, terminal blood was collected from 3 animals per group and prepared for serum. Sera were also collected from healthy Balb/c mice by the same procedure. Changes in the levels of cytokines/chemokines in sera from breast cancer-bearing and healthy mice were analyzed with the mouse L-308 membrane array by RayBiotech, Inc. (Norcross, Ga.) (Table 2).
Markers of lymphocyte and monocyte activation in response to 0.1 nmol/g svL4 in Balb/c mice bearing breast tumors are compared with healthy mice. Sera from three animals were pooled for analysis with an array of 308 soluble factors.
After the tumors had grown over a period of 10 to 12 days to a size of −500 mm^3, svL4 was injected subcutaneously at doses of 0.1 or 1.0 nmol/g. Sera were prepared 4 h after injection and analyzed with an array of 308 cytokines/chemokines.
Test [3] deals with peritoneal immune cells. Briefly: Expansion of peritoneal cells after subcutaneous injection, flow cytometry. Format: in vivo, Balb/c mice. The settings on record: 24 h after a single s.c. injection, 1 nmol/g. On the procedure: Flow Cytometry Healthy C57BL/6 male mice, 10 weeks old, were injected subcutaneously with peptides on alternate days. Peritoneal cells were isolated from mice 24 h after dosing by injecting ice cold PBS (containing 3% FBS) into the peritoneal cavity, gently massaging the abdomen, and then collecting the fluid, which was transferred into K2EDTA-treated tubes for evaluation of specific biomarkers. Cells from three mice in each group were pooled, counted and divided among FACS tubes (1×10^6 cells per tube). […]
Cells were incubated with the antibodies for 30 min at 4° C. in the dark. Following staining, the cells were washed two times with PBS/3% FBS and immediately analyzed with a MACSQuant flow cytometer (Miltenyi Biotech, Inc., San Diego, Calif.). […]
To examine whether increases occurred in mature immune cells, peritoneal cells from Balb/c and C57BL/6 mice were analyzed by flow cytometry after cells were stained with the markers listed in Table 1. […] Shown in FIGS. 7A-7D are results expressed as cell counts for F4/80 CD11b CD86 (mature, active macrophages); CD11c (DCs); CD11c CD86 (activated DCs); CD4 CD69 (activated T cells); CD8 CD69 (activated cytotoxic T cells); NK1.1 CD3^+ CD69 (activated NKT cells); NK1.1 CD3^− CD69 (activated NK cells); CD19 (B cells); and CD19 CD73 CD80 CD273 (memory B cells). […]
For orientation: In flow cytometry, cells or beads pass a laser one at a time.

A short description of test [4]: Serum cytokine array (L-308) in healthy mice. Format: in vivo, Balb/c mice. The note with it: svL4 s.c., 4 h, separate experiment. On the procedure:
Ratios of treated vs. untreated samples obtained in a separate experiment with healthy Balb/c mice are shown in the right-hand column of Table 2 for comparison. The most significant increase in the serum of healthy mice treated with the peptide was in the amount of soluble HVEM (Herpes virus entry mediator, also designated TNFRSF14), which was a prominent protein in serum and increased approximately 10-fold within 4 h after treatment. In the tumor-bearing mice, the level of soluble HVEM in treated animals was similar to that in treated healthy mice, but the level in untreated animals was higher than that in healthy control mice.

Setting [5] is: High = control value negligible or low.

The values that follow come from patent US11376307B2, “Compositions and methods of treating cancer with glycomimetic peptides” (SUSAVION BIOSCIENCES, INC., priority 2018, dated 2022).

Positions of bridges follow the written chain, without caps; N, C: chain ends. Chains are numbered I, II in the order given.

With “I: H-NQHTPRGGGSKK-NH2 / II: H-NQHTPRGGGSK / III: H-NQHTPRGGGS / IV: H-NQHTPRGGGS (amide I:11-IV:C, I:12-II:C, II:11-III:C) [sv6D]”, in test [1], the “IFN-γ release by CD4+ and CD8+ T cells on in vitro challenge” value is reported as “did not induce IFN-γ release”.

Consider “I: H-VQATQSNQHTPRGGGSKK-NH2 / II: H-VQATQSNQHTPRGGGSK / III: H-VQATQSNQHTPRGGGS / IV: H-VQATQSNQHTPRGGGS (amide I:17-IV:C, I:18-II:C, II:17-III:C) [svL4]”, for which, in test [2] (setting [5]), the “Ratio of level of IFN-γ in sera (treated vs. untreated)” value is given as “High”, the “Ratio of level of IL-17 in sera (treated vs. untreated)” value is “High”, the “Ratio of level of IL-21 in sera (treated vs. untreated)” value is “High” and the “Ratio of level of IL-23 in sera (treated vs. untreated)” value was “High”. Further, in test [2] (pooled sera of 3), the “Ratio of level of IL-1α in sera (treated vs. untreated)” value is given as 3, the “Ratio of level of IL-2 in sera (treated vs. untreated)” value is 56, the “Ratio of level of IL-12p70 in sera (treated vs. untreated)” value was determined as 3 and the “Ratio of level of IL-27 in sera (treated vs. untreated)” value was found to be 4.5. In test [2] (pooled sera of 3), the “Ratio of level of IL-28 in sera (treated vs. untreated)” value stood at 4.3, the “Ratio of level of IL-31 in sera (treated vs. untreated)” value is recorded as 3.5, the “Ratio of level of Lymphotoxin-α in sera (treated vs. untreated)” value is given as 12.5 and the “Ratio of level of TNFα in sera (treated vs. untreated)” value is on record as 45. In addition, the “Ratio of level of sHVEM in sera (treated vs. untreated)” value in test [2] (pooled sera of 3) is on record as 2. The “Change in peritoneal macrophages, DCs, T cells and NK cells” value in test [3] is listed as “Several-fold increases”. Moreover, in test [4], the “Ratio of level of IFN-γ in sera (treated vs. untreated)” value is reported as “no change”, the “Ratio of level of IL-1α in sera (treated vs. untreated)” value stood at 0.86, the “Ratio of level of IL-2 in sera (treated vs. untreated)” value is recorded as “no change” and the “Ratio of level of IL-12p70 in sera (treated vs. untreated)” value is on record as “no change”. In addition, in test [4], the “Ratio of level of IL-17 in sera (treated vs. untreated)” value was “no change”, the “Ratio of level of IL-21 in sera (treated vs. untreated)” value is on record as “no change”, the “Ratio of level of IL-23 in sera (treated vs. untreated)” value is recorded as “no change” and the “Ratio of level of IL-27 in sera (treated vs. untreated)” value came out at 0.55. For the same substance, in test [4], the “Ratio of level of IL-28 in sera (treated vs. untreated)” value is “no change”, the “Ratio of level of IL-31 in sera (treated vs. untreated)” value was “no change”, the “Ratio of level of Lymphotoxin-α in sera (treated vs. untreated)” value was 0.74 and the “Ratio of level of TNFα in sera (treated vs. untreated)” value is given as 0.21.
